Assay results as given in US20210267197A1, “PEPTIDES SIMILAR TO THE NATURAL PEPTAIBOL TRICHOGIN GA IV WITH PHYTOSANITARY ACTIVITIES” (UNIVERSITA' DEGLI STUDI DI PADOVA, priority 2018, published 2021).

How the values were obtained:
[1] = tested on: Penicillium digitatum; assay: In vitro inhibition of fungal spore germination, Penicillium digitatum; assay type: cell-based; details: for Concentration effective in vitro in inhibiting the germination of fungal spores with respect to the untreated control for at least 3 days: Penicillium digitatum; for Time for which spore germination of P. digitatum is inhibited: peptide at 15 μM, limited by duration of the experiment
[2] = tested on: Botrytis cinerea; assay: B. cinerea spore viability / germination assay with resazurin; assay type: cell-based; details: for Concentration effective in vitro in inhibiting the germination of fungal spores with respect to the untreated control for at least 3 days: Botrytis cinerea; for Time for which spore germination of B. cinerea is inhibited: limited by duration of the experiment
[3] = tested on: Penicillium expansum; assay: In vitro inhibition of fungal spore germination, Penicillium expansum; assay type: cell-based; details: for Concentration effective in vitro in inhibiting the germination of fungal spores with respect to the untreated control for at least 3 days: Penicillium expansum; for Time for which spore germination of P. expansum is inhibited: peptide at 15 μM, limited by duration of the experiment
[4] = tested on: Botrytis cinerea; assay: Bean leaves inoculated with Botrytis cinerea; assay type: in vivo
[5] = tested on: Fusarium graminearum; assay type: cell-based
[6] = tested on: B. cinerea; assay: Rot symptoms from B. cinerea on vine leaves; assay type: in vivo, Botrytis cinerea; details: 50 μM
[7] = tested on: Plasmopara viticola; details: for Prevention of development of the disease and production of sporangia of P. viticola: 50 μM aqueous solution, disks of vine leaves
Experimental: The histogram represents the average incidence (±standard error) of infections from P. viticola 12 days after inoculation obtained by performing at least 3 independent biological replicates. […] The incidence is calculated as a percentage ratio of the leaf disks showing the sporulation of the pathogen compared to the total of inoculated disks.
Glera vine leaves were inoculated with sporangia from the oomycete Plasmopara viticola, the causal agent of vine peronospora. The disks infected and then treated with peptides were incubated at 20/22° C. in conditions of high humidity (>92% RH) and in the dark (optimal conditions for the development of the disease) until the end of the experiment.

[8] = tested on: Pyricularia oryzae; assay type: cell-based
[9] = tested on: Penicillium italicum; assay: In vitro inhibition of fungal spore germination, Penicillium italicum; assay type: cell-based; details: for Concentration effective in vitro in inhibiting the germination of fungal spores with respect to the untreated control for at least 3 days: Penicillium italicum; for Time for which spore germination of Penicillium italicum is inhibited: peptide at 15 μM, limited by duration of the experiment

“1-octanoyl-Aib-Gly-Leu-Aib-Gly-Lys(HCl)-Leu-Aib-Gly-Ile-Lol [Peptide K6-Lol]” was tested, and the “Concentration effective in vitro in inhibiting the germination of fungal spores with respect to the untreated control for at least 3 days” value [1] was 15 µM, the “Concentration effective in vitro in inhibiting the germination of fungal spores with respect to the untreated control for at least 3 days” value [2] was 15 µM and the “Concentration effective in vitro in inhibiting the germination of fungal spores with respect to the untreated control for at least 3 days” value [3] was 15 µM.
For “1-octanoyl-Aib-Gly-Leu-Aib-Lys(HCl)-Lys(HCl)-Leu-Aib-Gly-Ile-Leu-NH2 [PEP4-rink]”, the “Reduction in the incidence of rot symptoms from B. cinerea on bean leaves” value ([4]; 15 μM, 7 days after inoculation) was 90%, the “Reduction in the incidence of B. cinerea (rot symptoms) on bean leaves” value ([4]; 50 μM) was 95% and the “Concentration effective in vitro in inhibiting the germination of fungal spores with respect to the untreated control for at least 3 days” value [1] was 15 µM. The “Concentration effective in vitro in inhibiting the germination of fungal spores with respect to the untreated control for at least 3 days” value [5] was 15 µM, the “Reduction in the incidence of rot symptoms from B. cinerea on vine leaves” value [6] was 70% and the “Concentration effective in vitro in inhibiting the germination of fungal spores with respect to the untreated control for at least 3 days” value [2] was 3 µM. The “Time for which spore germination of B. cinerea is inhibited” value (shortened to “Time … of B. cinerea is inhibited”) ([2]; peptide at 3 μM) was “at least 14 days”, the “Time … of B. cinerea is inhibited” value ([2]; peptide at 15 μM) was “at least 21 days” and the “Concentration effective in vitro in inhibiting the germination of fungal spores with respect to the untreated control for at least 3 days” value [3] was 15 µM.
In the case of “1-octanoyl-Aib-Gly-Leu-Aib-Lys(HCl)-Lys(HCl)-Leu-Aib-Gly-Ile-Lol [PEP4]”, the “Protection of bean leaves against infection by Botrytis cinerea” value ([4]; 50 μM aqueous solution, for at least seven days (duration of the experiment)) is reported as “protects the bean leaves against the infection caused by Botrytis cinerea”, the “Incidence of the disease (leaf disks showing sporulation / total inoculated disks)” value ([7]; 30 μM, 12 days after inoculation) is reported as under 20% and the “Prevention of development of the disease and production of sporangia of P. viticola” value [7] is reported as “almost completely prevents both the development of the disease and the production of sporangia”. The “Time of protection against P. viticola (no disease / no sporangia)” value ([7]; 50 μM, limited by duration of the experiment) was 15 days, the “Concentration effective in vitro in inhibiting the germination of fungal spores with respect to the untreated control for at least 3 days” value [1] was 15 µM and the “Concentration effective in vitro in inhibiting the germination of fungal spores with respect to the untreated control for at least 3 days” value [8] was 15 µM. For the same substance, the “Inhibition of spore germination of Pyricularia oryzae” value ([8]; 15 μM) was “effectively inhibit the spore germination”, the “Concentration effective in vitro in inhibiting the germination of fungal spores with respect to the untreated control for at least 3 days” value [9] was 15 µM and the “Germination of conidia of B. cinerea” value ([2]; 50 μM, conidia 5×10^5/ml in PDB) was “germination of the conidia is not observed”. The “Concentration effective in vitro in inhibiting the germination of fungal spores with respect to the untreated control for at least 3 days” value [2] was 3 µM, the “Time … of B. cinerea is inhibited” value ([2]; peptide at 3 μM) was “at least 7 days” and the “Concentration effective in vitro in inhibiting the germination of fungal spores with respect to the untreated control for at least 3 days” value [3] was 15 µM.
For “1-octanoyl-Aib-Gly-Leu-Aib-Lys(HCl)-Lys(HCl)-Leu-Leu-NH2 [PEP4-corto1-rink]”, the “Time for which spore germination of P. digitatum is inhibited” value (“Time … of P. digitatum is inhibited” below) [1] was “for 6 days (duration of the experiment)”, the “Time … of P. digitatum is inhibited” value ([1]; listed as Pep4-cortol-rink) was 6 days and the “Concentration effective in vitro in inhibiting the germination of fungal spores with respect to the untreated control for at least 3 days” value [9] was 15 µM. The “Time for which spore germination of Penicillium italicum is inhibited” value (“Time … of Penicillium italicum is inhibited” below) [9] was “for 6 days (duration of the experiment)”, the “Time … of Penicillium italicum is inhibited” value ([9]; listed as Pep4-cortol-rink) was 6 days and the “Time for which spore germination of P. expansum is inhibited” value (shortened to “Time … of P. expansum is inhibited”) [3] was “for 6 days (duration of the experiment)”. For the same substance, the “Time … of P. expansum is inhibited” value ([3]; listed as Pep4-cortol-rink) was 6 days.
With “1-octanoyl-Aib-Gly-Leu-Aib-Lys(HCl)-Lys(HCl)-Leu-Lol [PEP4-corto]” the “Prevention of development of the disease and production of sporangia of P. viticola” value [7] was “almost completely prevents the development of the disease and the production of sporangia” and the “Concentration effective in vitro in inhibiting the germination of fungal spores with respect to the untreated control for at least 3 days” value [2] was 3 µM.
With “1-octanoyl-Aib-Lys(HCl)-Leu-Aib-Lys(HCl)-Gly-Leu-Aib-Gly-Ile-Lol [Peptide K25]” the “Concentration effective in vitro in inhibiting the germination of fungal spores with respect to the untreated control for at least 3 days” value [1] was 15 µM and the “Time … of P. digitatum is inhibited” value [1] was “of Penicillium digitatum for more than 5 days”.
With “1-octanoyl-Aib-Lys(HCl)-Lys(HCl)-Leu-Aib-Gly-Ile-Leu-NH2 [PEP4-corto2-rink]” the “Time … of P. digitatum is inhibited” value ([1]; listed as Pep4-corto2-rink) was 15 days, the “Concentration effective in vitro in inhibiting the germination of fungal spores with respect to the untreated control for at least 3 days” value [9] was 15 µM and the “Time … of Penicillium italicum is inhibited” value ([9]; listed as Pep4-corto2-rink) was 15 days. The “Time … of B. cinerea is inhibited” value ([2]; peptide at 15 μM, listed as Pep4-corto2-rink) was 8 days and the “Time … of P. expansum is inhibited” value ([3]; listed as Pep4-corto2-rink) was 15 days.
